Results published in article PMC4774972, “Activity and Predicted Nephrotoxicity of Synthetic Antibiotics Based on Polymyxin B” (Journal of Medicinal Chemistry, 2016).
≈ marks a conversion by molar mass, not a printed value. Bridge positions count the residues as written; N and C are the ends. Square brackets hold non-standard residues; d marks the D form. Peptide text beside a SMILES is read from it. * marks the point of attachment. Bip = N[C@@H](Cc1ccc(-c2ccccc2)cc1)C(=O)O; dBip = N[C@H](Cc1ccc(-c2ccccc2)cc1)C(=O)O; Gly(octyl) = CCCCCCCC[C@H](N)C(=O)O; Octanoyl = CCCCCCCC(=O)*; Dab = NCC[C@H](N)C(=O)O

Assays:
[1] = system: HepG2; settings: CC50 HepG2 (µM)
[2] = system: K. pneumoniae CI 138-16357-20362, PmxR; settings: MIC K. pneumoniae CI 138-16357-20362, PmxR (µg/mL)
[3] = system: A. baumannii CI Ptyela 100734512:2, PmxR; settings: MIC A. baumannii CI Ptyela 100734512:2, PmxR (µg/mL)
[4] = system: K. pneumoniae CI Koprana 100650661:1, PmxR; settings: MIC K. pneumoniae CI Koprana 100650661:1, PmxR (µg/mL)
[5] = system: P. aeruginosa FADDI-PA070, PmxR; settings: MIC P. aeruginosa FADDI-PA070, PmxR (µg/mL)
[6] = system: P. aeruginosa PA9704, PmxR; settings: MIC P. aeruginosa PA9704, PmxR (µg/mL)
[7] = system: S. aureus ATCC 25923, MSSA; settings: MIC S. aureus ATCC 25923, MSSA (µg/mL)
[8] = system: K. pneumoniae CI 138-16357-20362, PmxR; assay: microbe, parasite or virus in culture; type: cell-based, Klebsiella pneumoniae; settings: carbapenem & polymyxin resistant clinical isolate; MHB, 5 × 10^5 CFU/mL, 18 h at 37 °C
Procedure: (§1) Bacteria were either obtained from American Type Culture Collection (ATCC; Manassas, VA, USA) or independent academic clinical isolate collections, as listed in Table S2. Bacteria were cultured in nutrient broth (NB; Bacto Laboratories, catalog no. 234000) or Muller Hinton broth (MHB; Bacto Laboratories, catalog no. 211443) at 37 °C overnight with shaking (∼180 rpm). A sample of each culture was then diluted 50-fold in fresh MHB and incubated at 37 °C for 1.5–3 h with shaking (∼180 rpm). Compound stock solutions were prepared as 0.64 or 2.56 mg/mL in water. The compounds, at twice the final desired concentration, were serially diluted 2-fold across the wells of 96-well plates (Polystyrene, Corning, catalogue No. 3370). Mid log phase bacterial cultures (after 1.5–3 h incubation) were diluted to a final concentration of 5 × 10^5 colony forming units (CFU)/mL, and 50 μL was added to each well giving a final compound concentration range of 32 μg/mL to 0.015 μg/mL (128–0.06 μg/mL for colistin and polymyxin B against the polymyxin resistant clinical isolates). MICs were determined visually after 18 h of incubation at 37 °C, with the MIC defined as the lowest compound concentration at which no bacterial growth was visible.
(§2) Table S2. Bacterial strains used for Minimum Inhibitory Concentration (MIC) […]
(§3) Organism Strain Strain description Strain Source
(§4) Escherichia coli ATCC 25922 FDA strain Seattle 1946 ATCC
(§5) Klebsiella pneumoniae ATCC 13883 Control strain ATCC
(§6) Klebsiella pneumoniae ATCC 700603 Multi-drug resistant ATCC
(§7) Klebsiella pneumoniae BAA-2146 Metallo-beta-lactamase- ATCC
(§8) Acinetobacter baumannii ATCC 19606 Type strain ATCC
(§9) Pseudomonas aeruginosa ATCC 27853 Type strain ATCC
(§10) Pseudomonas aeruginosa FADDI-PA070 Clinical isolate, Nation and Li labs, polymyxin resistant Monash University
(§11) Clinical isolate, Wang Hengzhuang, Pseudomonas aeruginosa PA9704 polymyxin resistant University Hospital of […]
(§12) Ptyela Clinical isolate, Ilias Karaiskos and Acinetobacter baumannii Carbapenem & Helen Giamarellou
(§13) Clinical isolate, Medicine, Hygeia
(§14) Klebsiella pneumoniae Koprana Carbapenem, & General Hospital, […]
(§15) Clinical isolate, (Instituto Dante […]
(§16) polymyxin resistant Cardiologia, São […]

[9] = system: K. pneumoniae CI Koprana 100650661:1, PmxR; assay: microbe, parasite or virus in culture; type: cell-based, Klebsiella pneumoniae; settings: carbapenem & polymyxin resistant clinical isolate; MHB, 5 × 10^5 CFU/mL, 18 h at 37 °C
Procedure: as §1, §2, §3, §4, §5, §6, §7, §8, §9, §10, §11, §12, §13, §14, §15, §16

Row | Compound | CC50 [1] | MIC [2] | MIC [3] | MIC [4] | MIC [5] | MIC [6] | MIC [7] | MIC K. pneumoniae CI 138-16357-20362, PmxR [8] | MIC K. pneumoniae CI Koprana 100650661:1, PmxR [9]
1 | CCCCCCCC(=O)N[C@@H](CCN)C(=O)N[C@H](C(=O)N[C@@H](CCN)C(=O)N[C@H]1CCNC(=O)[C@H]([C@@H](C)O)NC(=O)[C@H](CCN)NC(=O)[C@H](CCN)NC(=O)[C@H](CC(C)C)NC(=O)[C@@H](Cc2ccc(-c3ccccc3)cc2)NC(=O)[C@H](CCN)NC1=O)[C@@H](C)O (Octanoyl-[Dab]T[Dab][Dab][Dab][dBip]L[Dab][Dab]T; lactam 4-C) | 119 µM | – | – | – | – | – | – | – | –
2 | CCCCCCCC(=O)N[C@@H](CCN)C(=O)N[C@H](C(=O)N[C@@H](CCN)C(=O)N[C@H]1CCNC(=O)[C@H]([C@@H](C)O)NC(=O)[C@H](CCN)NC(=O)[C@H](CCN)NC(=O)[C@H](Cc2ccc(-c3ccccc3)cc2)NC(=O)[C@@H](Cc2ccccc2)NC(=O)[C@H](CCN)NC1=O)[C@@H](C)O (Octanoyl-[Dab]T[Dab][Dab][Dab][dF][Bip][Dab][Dab]T; lactam 4-C) | 117 µM | > 32 µg/mL | – | – | – | – | – | – | –
3 | CCCCCCCC[C@@H]1NC(=O)[C@@H](Cc2ccccc2)NC(=O)[C@H](CCN)NC(=O)[C@@H](NC(=O)[C@H](CCN)NC(=O)[C@@H](NC(=O)[C@H](CCN)NC(=O)CCCCCCC)[C@@H](C)O)CCNC(=O)[C@H]([C@@H](C)O)NC(=O)[C@H](CCN)NC(=O)[C@H](CCN)NC1=O (Octanoyl-[Dab]T[Dab][Dab][Dab][dF][Gly(octyl)][Dab][Dab]T; lactam 4-C) | 116 µM | 32 µg/mL (≈ 25.7 µM) | 8 µg/mL (≈ 6.42 µM) | 32 µg/mL (≈ 25.7 µM) | 16 µg/mL (≈ 12.8 µM) | 8 µg/mL (≈ 6.42 µM) | 8 µg/mL (≈ 6.42 µM) | – | –
4 | CCCCCCCC(=O)N[C@H](C(=O)N[C@@H](CCN)C(=O)N[C@H]1CCNC(=O)[C@H]([C@@H](C)O)NC(=O)[C@H](CCN)NC(=O)[C@H](CCN)NC(=O)[C@H](CC(C)C)NC(=O)[C@@H](Cc2ccccc2)NC(=O)[C@H](CCN)NC1=O)[C@@H](C)O [Compound 12] (Octanoyl-T[Dab][Dab][Dab][dF]L[Dab][Dab]T; lactam 3-C) | > 300 µM | > 32 µg/mL | > 32 µg/mL | > 32 µg/mL | > 32 µg/mL | > 32 µg/mL | > 32 µg/mL | >32 µg/mL | >32 µg/mL
5 | CCCCCCCC(=O)N[C@@H](CCN)C(=O)N[C@H](C(=O)N[C@@H](CCN)C(=O)N[C@H]1CCNC(=O)[C@H]([C@@H](C)O)NC(=O)[C@H](CCN)NC(=O)[C@H](CCNC(=O)[C@@H](N)CCCNC(=N)N)NC(=O)[C@H](CC(C)C)NC(=O)[C@@H](Cc2ccccc2)NC(=O)[C@H](CCN)NC1=O)[C@@H](C)O [Compound 22] | – | > 32 µg/mL | > 32 µg/mL | > 32 µg/mL | > 32 µg/mL | > 32 µg/mL | > 32 µg/mL | >32 µg/mL | >32 µg/mL
6 | CCCCCCCC(=O)N[C@@H](CCN)C(=O)N[C@H](C(=O)N[C@@H](CCN)C(=O)N[C@H]1CCNC(=O)[C@H]([C@@H](C)O)NC(=O)[C@H](CCN)NC(=O)[C@H](Cc2ccc(N)cc2)NC(=O)[C@H](CC(C)C)NC(=O)[C@@H](Cc2ccccc2)NC(=O)[C@H](CCN)NC1=O)[C@@H](C)O [Compound 25] | – | > 32 µg/mL | > 32 µg/mL | > 32 µg/mL | – | > 32 µg/mL | > 32 µg/mL | >32 µg/mL | >32 µg/mL
7 | CCCCCCCC(=O)N[C@@H](CCN)C(=O)N[C@H](C(=O)N[C@@H](CCN)C(=O)N[C@H]1CCNC(=O)[C@H]([C@@H](C)O)NC(=O)[C@H](CCN)NC(=O)[C@H](CCCNC(=N)N)NC(=O)[C@H](CC(C)C)NC(=O)[C@@H](Cc2ccccc2)NC(=O)[C@H](CCN)NC1=O)[C@@H](C)O [Compound 26] | – | > 32 µg/mL | – | > 32 µg/mL | – | > 32 µg/mL | > 32 µg/mL | >32 µg/mL | >32 µg/mL
